Experimental data reported in ChEMBL document CHEMBL2010693, “Scaffold hybridization in generation of indenoindolones as anticancer agents that induce apoptosis with cell cycle arrest at G2/M phase” (Bioorg Med Chem Lett, 2012).
Calls of active or inactive are those of the source. No cut-off for these calls is given here.

Key:
[1] = Cytotoxicity against african green monkey Vero cells after 48 hrs by MTT assay; format: cell-based; conditions: chlorocebus sabaeus, read-out: LC50
[2] = tested on: HEK293; assay: Cytotoxicity against human HEK293 cells after 48 hrs by MTT assay; format: functional; conditions: HEK293, 48 h, read-out: LC50 (the source's name)
[3] = tested on: HEK293; assay: Induction of apoptosis in human HEK293 cells assessed as increase in induction of PARP cleavage after 48 hrs by Western blot analysis; format: functional, cell-based
[4] = tested on: HEK293; assay: Cell cycle arrest in human HEK293 cells assessed as accumulation at G0 phase at LC50 after 48 hrs by propidium iodide staining based FACS analysis (reference value: 3.5 %); format: functional
[5] = tested on: HEK293; assay: Induction of apoptosis in human HEK293 cells assessed as shrinkage of nuclei at LC50 after 48 hrs using DAPI staining method; format: functional, cell-based
[6] = tested on: HEK293; assay: Cell cycle arrest in human HEK293 cells assessed as accumulation at G1 phase at LC50 after 48 hrs by propidium iodide staining based FACS analysis (reference value: 53.56 %); format: functional
[7] = tested on: HEK293; assay: Induction of apoptosis in human HEK293 cells assessed as punchate nuclei at LC50 after 48 hrs using DAPI staining method; format: functional, cell-based
[8] = tested on: HEK293; assay: Cytotoxicity against human HEK293 cells after 72 hrs by MTT assay; format: functional; conditions: HEK293, 72 h, read-out: LC50 (the source's name)
[9] = tested on: HEK293; assay: Cell cycle arrest in human HEK293 cells assessed as accumulation at S phase at LC50 after 48 hrs by propidium iodide staining based FACS analysis (reference value: 18.92 %); format: functional
[10] = tested on: HEK293; assay: Induction of apoptosis in human HEK293 cells assessed as bubble shape nuclei at LC50 after 48 hrs using DAPI staining method; format: functional, cell-based
[11] = tested on: HEK293; assay: Induction of apoptosis in human HEK293 cells assessed as reduction of Bcl-xL level after 48 hrs by Western blot analysis; format: functional, cell-based
[12] = tested on: HEK293; assay: Cell cycle arrest in human HEK293 cells assessed as accumulation at G2/M phase at LC50 after 48 hrs by propidium iodide staining based FACS analysis (reference value: 2.76 %); format: functional
[13] = tested on: HEK293; assay: Induction of apoptosis in human HEK293 cells assessed as increase in caspase-3 cleavage after 48 hrs by Western blot analysis; format: functional, cell-based
[14] = Cytotoxicity against african green monkey Vero cells after 72 hrs by MTT assay; format: cell-based; conditions: chlorocebus sabaeus, read-out: LC50
[15] = tested on: HEK293; assay: Induction of apoptosis in human HEK293 cells assessed as increase in Bax expression after 48 hrs by Western blot analysis; format: functional, cell-based
[16] = tested on: HEK293; assay: Induction of apoptosis in human HEK293 cells assessed as increase in caspase-3 expression after 48 hrs by immunohistochemistry analysis; format: functional, cell-based
[17] = Cytotoxicity against african green monkey Vero cells after 24 hrs by MTT assay; format: cell-based; conditions: chlorocebus sabaeus, read-out: LC50
[18] = tested on: HEK293; assay: Cytotoxicity against human HEK293 cells after 24 hrs by MTT assay; format: functional; conditions: HEK293, 24 h, read-out: LC50 (the source's name)

Compound | CC50 at 48 h [1] [µM] | CC50 [2] [µM] | Activity [3] | Activity [4] [%] | Activity [5] | Activity [6] [%] | Activity [7] | CC50 [8] [µM] | Activity [9] [%] | Activity [10] | Activity [11] | Activity [12] [%] | Activity [13] | CC50 at 72 h [14] [µM] | Activity [15] | Activity [16] | CC50 at 24 h [17] [µM] | CC50 [18] [µM]
COc1cc([C@@H]2c3cc4c(cc3[C@@H](O[C@@H]3O[C@@H]5CO[C@@H](C)O[C@H]5[C@H](O)[C@H]3O)[C@H]3COC(=O)[C@H]23)OCO4)cc(OC)c1O [ETOPOSIDE] | 18 | 28 |  |  |  |  |  |  |  |  |  |  |  |  |  |  |  | 
O=C1c2ccccc2-c2c1c1ccccc1n2Cc1ccccc1 | 53 | 17 | Active | 0.44 | Active | 41.21 | Active | 16 | 20.19 | Active | Active | 38.7 | Active | 45 | Active | Active | 57 | 50
O=C1c2cc(F)ccc2-c2[nH]c3ccccc3c21 | > 100 | 22 | Active | 0.46 | Active | 37.31 | Active | 15 | 23.79 | Active | Active | 38.9 | Active | 65 | Active | Active | > 100 | 18
COc1cc2c(cc1OC)-c1[nH]c3ccccc3c1C2=O | 54 | 15 | Active | 0.03 | Active | 3.43 | Active | 12 | 23.95 | Active | Active | 73.31 | Active | 55 | Active | Active | 47 | 16
O=c1[nH]cc(F)c(=O)[nH]1 [FLUOROURACIL] |  | 25 |  |  |  |  |  |  |  |  |  |  |  |  |  |  |  | 
COc1cc2c(c(OC)c1OC)-c1c(c3ccccc3n1C)C2=O | 39 | 17 | Active | 0.23 | Active | 22.98 | Active | 16 | 19.52 | Active | Active | 57.56 | Active | 35 | Active | Active | 42 | 39
O=C1c2ccccc2-c2[nH]c3ccccc3c21 | 48 | 15 | Active | 0.05 | Active | 6.29 | Active | 14 | 17.35 | Active | Active | 76.44 | Active | 40 | Active | Active | 56 | 50
